Results published in US5073557A, “Novel substituted pyrazine, formulations thereof and use in medicine” (Merck Sharp & Dohme Limited, priority 1989, dated 1991).

Assays:
Assay type in all cases: cell-based
[1] = target: T1, M3 muscarinic receptor (ileum) (Cavia porcellus, UniProt H0W1Z3); test: Agonist activity against muscarinic receptors in the ileum (M3 agonist activity)
T1 construct: agonist activity against muscarinic receptors in the ganglion, heart and ileum; from tissue; host or cells: ileum
T1 sequence (H0W1Z3 1-590): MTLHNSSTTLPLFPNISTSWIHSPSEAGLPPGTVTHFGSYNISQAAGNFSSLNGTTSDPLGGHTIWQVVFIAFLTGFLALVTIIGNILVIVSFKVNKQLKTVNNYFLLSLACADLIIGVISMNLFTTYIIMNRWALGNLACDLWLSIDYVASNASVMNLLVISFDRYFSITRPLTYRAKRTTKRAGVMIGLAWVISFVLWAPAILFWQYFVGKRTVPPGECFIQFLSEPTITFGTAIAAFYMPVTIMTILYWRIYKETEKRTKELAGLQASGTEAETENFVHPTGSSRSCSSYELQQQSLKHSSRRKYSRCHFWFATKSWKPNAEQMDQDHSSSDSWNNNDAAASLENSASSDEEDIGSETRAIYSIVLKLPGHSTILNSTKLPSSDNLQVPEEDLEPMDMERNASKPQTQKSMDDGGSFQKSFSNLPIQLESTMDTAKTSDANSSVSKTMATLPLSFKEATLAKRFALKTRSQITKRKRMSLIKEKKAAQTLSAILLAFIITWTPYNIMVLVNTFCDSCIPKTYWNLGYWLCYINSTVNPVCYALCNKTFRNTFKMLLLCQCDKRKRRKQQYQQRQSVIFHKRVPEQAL
Excerpt: (§1) European Patent Application No. 89200147 (Publication No. 327155) discloses a class of pyrazines, pyridazines or pyrimidines, and salts and prodrugs thereof, substituted on one of the ring carbon atoms thereof with a non-aromatic azacyclic or azabicyclic ring system; and independently substituted on each of the other ring carbon atoms with a substituent of low lipophilicity or a hydrocarbon substituent, which compounds stimulate cholinergic transmission.
(§2) The following results are obtained in pharmacological assays to allow agonist activity against muscarinic receptors in the ganglion, heart and ileum.

[2] = target: T2, M1 muscarinic receptor (ganglion) (Rattus norvegicus, UniProt P08482); test: Agonist activity against muscarinic receptors in the ganglion (M1 agonist activity); conditions: for EC50: ganglion
T2 construct: agonist activity against muscarinic receptors in the ganglion, heart and ileum; from tissue
T2 sequence (P08482 1-460): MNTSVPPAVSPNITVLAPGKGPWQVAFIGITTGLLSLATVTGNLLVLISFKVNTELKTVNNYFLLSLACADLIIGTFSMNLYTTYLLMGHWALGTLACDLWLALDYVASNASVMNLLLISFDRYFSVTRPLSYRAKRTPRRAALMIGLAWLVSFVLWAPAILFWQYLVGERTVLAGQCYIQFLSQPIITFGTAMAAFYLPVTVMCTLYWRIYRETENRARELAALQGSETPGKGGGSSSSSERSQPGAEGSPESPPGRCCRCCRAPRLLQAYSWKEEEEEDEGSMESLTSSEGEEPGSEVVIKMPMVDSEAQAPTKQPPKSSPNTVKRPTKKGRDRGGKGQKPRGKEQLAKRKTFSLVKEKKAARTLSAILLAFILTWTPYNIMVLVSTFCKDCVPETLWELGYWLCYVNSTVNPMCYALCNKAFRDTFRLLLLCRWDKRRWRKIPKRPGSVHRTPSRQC
Excerpt: as §1, §2

[3] = target: T3, M2 muscarinic receptor (heart) (Cavia porcellus, UniProt H0VRN8); test: Pharmacological assay on muscarinic receptors in the heart (M2 antagonist activity); conditions: read-out: Heart (pA2) (converted)
T3 construct: agonist activity against muscarinic receptors in the ganglion, heart and ileum; from tissue
T3 sequence (H0VRN8 1-466): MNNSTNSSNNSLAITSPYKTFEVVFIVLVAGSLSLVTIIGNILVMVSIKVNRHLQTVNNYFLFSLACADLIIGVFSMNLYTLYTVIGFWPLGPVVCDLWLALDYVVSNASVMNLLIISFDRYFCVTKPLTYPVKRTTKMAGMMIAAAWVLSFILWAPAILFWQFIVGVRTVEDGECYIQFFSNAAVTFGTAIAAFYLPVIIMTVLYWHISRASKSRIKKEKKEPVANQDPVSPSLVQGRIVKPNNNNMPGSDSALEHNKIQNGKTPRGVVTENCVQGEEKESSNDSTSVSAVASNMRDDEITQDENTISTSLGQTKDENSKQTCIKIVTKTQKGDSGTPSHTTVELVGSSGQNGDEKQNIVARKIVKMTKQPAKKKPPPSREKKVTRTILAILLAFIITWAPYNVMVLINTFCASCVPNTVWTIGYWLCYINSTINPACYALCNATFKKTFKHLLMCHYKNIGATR
Excerpt: as §1, §2

## Clc1cncc(C2CN3CCC2CC3)n1 (racemic) [racemate, 3-[2-(6-chloropyrazin)yl]-1-azabicyclo[2.2.2]octane]
[1]
  EC50: 30 nM
[2]
  EC50: 100 nM
[3]
  Kb: 79.4 nM

## Clc1cncc([C@@H]2CN3CCC2CC3)n1 [(S) isomer]
[1]
  EC50: 600 nM
[2]
  EC50: 200 nM
[3]
  Kb: 126 nM

## Clc1cncc([C@H]2CN3CCC2CC3)n1 [(1), (R)-3-[2-(6-chloropyrazin)yl]-1-azabicyclo[2.2.2]octane]
[1]
  EC50: 40 nM
[2]; M1 receptor, versus (S)-enantiomer
  potency at the M1 receptor relative to the corresponding (S)-enantiomer: four times
[2]; M1 receptor, versus racemate
  potency at the M1 receptor relative to the corresponding racemate: twice the potency
[2]
  EC50: 50 nM
[3]
  Kb: 63.1 nM
